Laboratory results from ChEMBL document CHEMBL1121777, “Synthesis and antidepressant activity of substituted (omega-aminoalkoxy)benzene derivatives” (J Med Chem, 1981).
In brackets after ≈: the same amount, converted by molar mass.

Columns and labels:
Mus musculus [1] = organism: Mus musculus; assay: The compound was tested for it's ability to prevent the reserpine induced hypothermia in mice; assay type: functional
Mus musculus [2] = organism: Mus musculus; assay: Ability to prevent the reserpine induced hypothermia in mice relative to amitriptyline; assay type: functional
Rattus norvegicus [3] = assay: Antimuricide effect was observed in the olfactory bulb removed rats; antimuricide effect at 30 mg/kg; ++ = 51-70%; assay type: functional
Mus musculus [4] = assay: Muscle relaxant effect was measured as ED50 which is the dose that causes muscle relaxation in 50% of the mice, po; assay type: functional
Cavia porcellus = organism: Cavia porcellus; assay: Concentration required to reducing the histamine induced contraction by 50% was measured; assay type: functional
Mus musculus [5] = assay: The compound was tested for it's ability to reverse the reserpine induced hypothermia in mice, po; assay type: functional
Mus musculus [6] = assay: Antiphysostigmine effect was measured as ED50,po; assay type: functional
[7] = Toxicity was measured as LD50,po; assay type: organism-based; conditions: mouse, in vivo
Mus musculus [8] = organism: Mus musculus; assay: The compound was tested for it's ability to reverse the reserpine induced hypothermia in mice; assay type: functional
Rattus norvegicus [9] = assay: Antimuricide effect was observed in the olfactory bulb removed rats; antimuricide effect at 30 mg/kg; ++ = 51 - 70%; assay type: functional
Rattus norvegicus [10] = assay: Antimuricide effect was observed in the olfactory bulb removed rats; antimuricide effect at 30 mg/kg; + = 31-50%; assay type: functional
Rattus norvegicus [11] = assay: Antimuricide effect was observed in the olfactory bulb removed rats; antimuricide effect at 30 mg/kg; + = 31 - 50%; assay type: functional

Compound	Relative potency (Mus musculus [2])	other results
CNCCCCOc1ccccc1Nc1ccccc1.Cl	–	Relative potency (Mus musculus [1]): 0.29
CNCCCCOc1ccc(Cl)cc1Cc1ccccc1.Cl	0.17	–
CNCCCCOc1ccccc1[S+]([O-])c1ccccc1.Cl (stereo not given)	0.49	–
CNCCCCOc1ccccc1C(=O)Nc1ccccc1.Cl	0.36	–
CN(C)CCCCOc1ccccc1Oc1ccccc1.Cl	0.58	–
CNCCCCOc1ccccc1S(=O)(=O)c1ccccc1.Cl	0.17	–
Cc1ccc(Cc2ccccc2OCCCCN(C)C)cc1.Cl	0.18	–
CNCCCCOc1ccccc1Cc1ccccc1OC.Cl	0.85	–
CNCCCCOc1ccccc1Cc1ccc(Cl)cc1.Cl	0.27	–
CNCCCCOc1ccccc1C1CCCCC1.Cl	0.28	–
COc1ccc(Cc2ccccc2OCCCCN(C)C)cc1.Cl	0	–
CNCCCCOc1ccc(Cc2ccccc2)cc1.Cl	0	–
Cl.NCCCCOc1ccccc1Cc1ccccc1	0	–
CCNCCCOc1ccccc1Cc1ccccc1.Cl	0	–
CN(C)CCCOc1ccccc1Cc1ccccc1.Cl	0	–
CNCCCCOc1ccccc1C(C)c1ccccc1.Cl (stereo not given)	0.66	–
CNCCCCOc1ccccc1C(O)c1ccccc1.Cl (stereo not given)	0	–
CN(C)CCCCOc1ccccc1Sc1ccccc1.Cl	0.7	–
CNCCCCOc1ccccc1Oc1ccccc1.Cl	1.1	Effect (Rattus norvegicus [3]): 51%; ED50 (Mus musculus [4]): > 200 mg/kg; IC50 (Cavia porcellus): 1.6 µg/mL; ED10 (Mus musculus [5]): 8.8 mg/kg; ED50 (Mus musculus [6]): > 200 mg/kg; LD50 [7]: 600 mg/kg
CNCCCCOc1ccc(O)cc1Cc1ccccc1.Cl	0.31	–
Cl.c1ccc(Cc2ccccc2OCCCCN2CCCCC2)cc1	0.41	–
CN(C)CCCCOc1ccccc1Cc1ccccc1.Cl	0	–
CNCCCCOc1ccccc1OCc1ccccc1.Cl	0	–
CNCCCCOc1ccccc1Cc1ccccc1.Cl	0.78	ED10 (Mus musculus [8]): 12.5 mg/kg; ED50 (Mus musculus [4]): > 200 mg/kg; IC50 (Cavia porcellus): 1.1 µg/mL; ED50 (Mus musculus [6]): > 200 mg/kg; LD50 [7]: 1000 mg/kg

Compound	Relative potency (Mus musculus [2])	other results
CNCCCCOc1ccccc1Cc1ccc(OC)cc1.Cl	0	–
CCOc1ccccc1OCCCCNC.Cl	0	–
CNCCOc1ccccc1Cc1ccccc1.Cl	0	–
CN(C)CCOc1ccccc1Cc1ccccc1.Cl	0	IC50 (Cavia porcellus): 0.001 µg/mL
CNCCCCOc1ccccc1Cc1ccc(C)cc1.Cl	0.44	–
CNCCCCOc1ccccc1CCc1ccccc1.Cl	0	–
CN(C)CCCCOc1ccc(Cl)cc1Cc1ccccc1.Cl	0.26	–
CN(C)CCCCOc1ccccc1Cc1ccccc1O.Cl	0.77	–
CN(C)CCCCOc1ccccc1Cc1ccc(Cl)cc1.Cl	0.17	–
CNCCCCOc1ccccc1Cl.Cl	0	–
CNCCCCOc1ccc(OC)cc1.Cl	0	–
CNCCCCCOc1ccccc1Cc1ccccc1.Cl	0.57	–
CCNCCCCOc1ccccc1Cc1ccccc1.Cl	0.53	–
CN1CCN(CCCCOc2ccccc2Cc2ccccc2)CC1.Cl	0	–
CC(c1ccccc1)c1ccccc1OCCCCN(C)C.Cl (stereo not given)	0.36	–
Cl.c1ccc(Cc2ccccc2OCCCCN2CCOCC2)cc1	0.3	–
CN(C)CCCCOc1ccccc1Cl.Cl	0.47	–
CNCCCCOc1ccccc1C(=O)c1ccccc1.Cl	0	–
CNCCCCOc1ccccc1Cc1ccccc1O.Cl	0.99	Effect (Rattus norvegicus [9]): 51%; ED10 (Mus musculus [8]): 15 mg/kg; ED50 (Mus musculus [4]): > 200 mg/kg; IC50 (Cavia porcellus): 2.5 µg/mL; ED50 (Mus musculus [6]): > 200 mg/kg; LD50 [7]: 750 mg/kg
CN(C)CCCCCOc1ccccc1Cc1ccccc1.Cl	0.23	–
CNCCCCOc1ccccc1Sc1ccccc1.Cl	0.89	ED50 (Mus musculus [4]): > 200 mg/kg; IC50 (Cavia porcellus): 2.2 µg/mL; ED10 (Mus musculus [5]): 15 mg/kg; ED50 (Mus musculus [6]): > 200 mg/kg; Effect (Rattus norvegicus [10]): 31%; LD50 [7]: 980 mg/kg
Cc1cccc(Cc2ccccc2)c1OCCCCN(C)C.Cl	0.66	–
CN(C)CCC=C1c2ccccc2CCc2ccccc21 [AMITRIPTYLINE]	5.8	ED50 (Mus musculus [4]): 40 mg/kg; IC50 (Cavia porcellus): 0.0083 µg/mL (≈ 0.0299 µM); ED50 (Mus musculus [6]): 35 mg/kg; Effect (Rattus norvegicus [11]): 31%; LD50 [7]: 300 mg/kg
CN(C)CCCN1c2ccccc2CCc2ccccc21 [IMIPRAMINE]	–	ED50 (Mus musculus [4]): 190 mg/kg; IC50 (Cavia porcellus): 0.032 µg/mL (≈ 0.114 µM); ED50 (Mus musculus [6]): 120 mg/kg; Effect (Rattus norvegicus [11]): 31%
